{
  "source": "paper PMC12867150",
  "about": "“A fungi-derived cyclic peptide enhances Th9-mediated antitumor immunity by targeting ZAP70 and SREBP1” (The Journal of Clinical Investigation, 2025)",
  "key": {"IL9, IRF4, and SPI1 mRNA": {"tested_on": "IL9, IRF4, and SPI1 mRNA", "test": "Quantitative PCR of IL9, IRF4 and SPI1 in human Th9 cells (Figure 8C)", "type": "cell-based", "conditions": "result in words", "experimental": "For Th9 polarization, cultures were supplemented with IL-4 (10 ng/mL, PeproTech, catalog AF-200-04), TGF-β (1 ng/mL), and neutralizing anti–IFN-γ monoclonal antibody (10 μg/mL, clone B27, BioXcell, catalog BE0245). After 3 days of initial culture, cells were either collected for downstream assays or continued in extended culture with refreshed cytokines to maintain lineage commitment without antibodies. Th9 cells were collected at days 4, 5, and 6 for subsequent in vitro assays. For adoptive transfer studies, day 4–cultured Th9 cells were washed and prepared for intravenous injection.\nTotal RNA was extracted from T cells using RNAex Pro Reagent (AG, catalog AG21102) following the manufacturer’s instructions. First-strand complementary DNA (cDNA) was synthesized using the Hifair III 1st Strand cDNA Synthesis SuperMix (YEASEN, catalog 11137ES10). Quantitative real-time PCR (qRT-PCR) was conducted on a QuantStudio 3 Real-Time PCR System (Thermo Fisher Scientific) using ChamQ Universal SYBR qPCR Master Mix (Vazyme, catalog Q711-02) and gene-specific primers (Tsingke Biotech).\nFor normalization, mouse samples were referenced to Gapdh or Actb, and human samples were normalized to GAPDH. Relative gene expression was calculated using the ΔΔCt method. Primer sequences are listed in Supplemental Table 5."}, "Th2 cells": {"tested_on": "Th2 cells", "test": "Th2 polarization, IL-4 by flow cytometry (Figure 1G)", "type": "cell-based, mouse", "experimental": "Naive CD4^+ T cells were isolated from the spleens of C57BL/6J or CD45.1^+ OT-II mice using the MojoSort Mouse CD4 Naive T Cell Isolation Kit (BioLegend, catalog 480040), following the manufacturer’s protocol. Purified cells were cultured in RPMI-1640 medium supplemented with 10% FBS, 1% penicillin-streptomycin, and 0.1% β-mercaptoethanol (Gibco, catalog 21985023).\nT cell polarization was initiated under plate-bound anti-CD3 (2 μg/mL, clone 17A2, BioXCell, catalog BE0002) and soluble anti-CD28 (1 μg/mL, clone 37.51, BioXCell, catalog BE0015-1) stimulation, with the addition of cytokines and neutralizing antibodies specific to each subset. For Th9 cells, these included IL-4 (10 ng/mL, Peprotech, catalog 400-04), TGF-β (1 ng/mL, EPOTO Biotech, catalog HF-2021), anti–IL-12 (5 μg/mL, clone C17.8, BioXCell, catalog BE0051), and anti–IFN-γ (10 μg/mL, clone XMG1.2, BioXCell, catalog BE0055); for Th1 cells, these included IL-12 (10 ng/mL, GenScript, catalog Z03211-50) and anti–IL-4 (5 μg/mL, clone 11B11, BioXCell, catalog BE0045); for Th2 cells, these included IL-4 (50 ng/mL), anti–IFN-γ (20 μg /mL), anti–IL-12 (5 μg/mL), Th17 cells: IL-6 (20 ng/mL, EPOTO Biotech, catalog MF-1006), TGF-β (1 ng/mL), IL-1β (10 ng/mL, Peprotech, catalog AF-211-11B), anti–IFN-γ (10 μg/mL), anti–IL-12 (5 μg/mL), and anti–IL-4 (5 μg/mL); and for Tregs, these included TGF-β (3 ng/mL). […]"}},
  "note": "Where “and” joins values, the source holds several entries; their conditions need not be identical. Equal entries are not always repeated.",
  "data": [
    {"substance": "anteiso-C15 Leu7 surfactin [EpA]", "values": [
      {"measurement": "IL9, IRF4, SPI1 mRNA", "setting": "IL9, IRF4, and SPI1 mRNA", "result": "upregulated"},
      {"measurement": "IL-4 expression under Th2 polarization", "setting": "Th2 cells; EpA 10 μM, individual replicates, n = 4", "result": "38.3947 and 41.0302 and 36.7821 and 38.8006"},
      {"measurement": "effect on Th2 differentiation", "setting": "Th2 cells; result in words", "result": "only a minor increase in Th2 differentiation"}
    ]}
  ]
}
